Measured values: US20250066320A1, “Active Ingredients with Sialagogue and Tingling/Fizzy Effect, and Preparations Containing Same” (Symrise AG, priority 2021, published 2025)

Assay: Sensory tasting of the active ingredients (mouth-watering and/or tingling effect) by a trained expert panel
Format: in vivo, human
Conditions: for Sensory Rating: intensity of mouth-watering and/or tingling/fizzing effect (figure in brackets): 50 ppm
Description: The sensory tasting of the active ingredients according to the invention was carried out as follows: • (1) The active ingredients were each prepared in a 5% sugar solution or in an unflavored standard fondant mass. Fondant is the name for a soft, pasty sugar mass that is used to make various confectionery products. Fondant is made from water and sucrose as well as glucose syrup, invert sugar cream and/or sugar alcohols (e.g., sorbitol or mannitol). The mixture is boiled and then processed into a soft paste by kneading it vigorously and cooling it quickly. • (2) The concentration of the active ingredients was 25 or 50 ppm. • (3) The test samples were tested under practical conditions by a panel of experts with sensory training. For tasting, 3 to 7 tasters each rinsed their mouths with approx. 5 ml of the sugar solution and spat the solution out again. The mouth-watering and/or tingling effect was assessed on a scale of 1 (very weak) to 10 (very strong) and the profile evaluated.

[1] = 50 ppm in 5% sugar solution or unflavored fondant mass, 3 to 7 tasters
[2] = scale of 1 (very weak) to 10 (very strong)
[3] = 25 ppm in 5% sugar solution or unflavored fondant mass, 3 to 7 tasters

| SMILES | Sensory Rating (profile in words) [1] | Sensory Rating: intensity of mouth-watering and/or tingling/fizzing effect (figure in brackets) [2] | Sensory Rating (profile in words) [3] | Sensory Rating (profile in words) (dosage 25 and 50 ppm, cell not split by dosage) | Sensory Rating: intensity of tingling/fizzing effect (figure in brackets) (dosage 25 and 50 ppm, cell not split by dosage, scale of 1 (very weak) to 10 (very strong)) |
| --- | --- | --- | --- | --- | --- |
| COc1ccc(C(=O)N2CCN(Cc3ccccc3)CC2)cc1 [Compound 40, (4-benzylpiperazin-1-yl)-(4-methoxy-phenyl)methanone] | mouth-watering, neutral, slightly tingling/ fizzing (1-2) | mouth-watering, neutral, slightly tingling/ fizzing (1-2) | – | – | – |
| COc1ccc(C(=O)N2CCN(CCC3CCCCC3)CC2)cc1OC [Compound 29, [4-(2-cyclo-hexylethyl)piperazin-1-yl]-(3,4-dimethoxy-phenyl)methanone] | slightly mouth-watering, slightly tingling/ fizzing (1-2), green note, light onion flavor | slightly mouth-watering, slightly tingling/ fizzing (1-2), green note, light onion flavor | – | – | – |
| COc1ccc(C(=O)N2CCN(Cc3ccccc3)CC2)cc1OC [Compound 33, (4-benzylpiperazin-1-yl)-(3,4-dimethoxy-phenyl)methanone] | very slightly tingling/ fizzing (1-2), slightly like marzipan | very slightly tingling/ fizzing (1-2), slightly like marzipan | – | – | – |
| O=C(c1ccccc1)N1CCN(CCc2ccccc2)CC1 [Compound 18, Phenyl-[4-(2-phenyl-ethyl)piperazin-1-yl]methanone] | slightly tingling/ fizzing and mouth-watering | 2-3 | no effect | – | – |
| O=C(c1ccccc1)N1CCN(C/C=C/c2ccccc2)CC1 [Compound 17, [4-[(E)-cinnamyl]piperazin-1-yl]-phenyl-methanone] | slightly tingling/ fizzing, slightly honey-like | 3 | – | – | – |
| COc1ccc(C(=O)N2CCN(C/C=C/c3ccccc3)CC2)cc1OC [Compound 3, [4-[(E)-cinnamyl]piperazin-1-yl]-(3,4-dimethoxy-phenyl)methanone] | tingling/ fizzing | – | – | – | – |
| CCOc1ccc(C(=O)N2CCN(CCOc3ccccc3)CC2)cc1OCC [Compound 13, (3,4-Diethoxy-phenyl)-[4-(2-phenoxyethyl)piperazin-1-yl] methanone] | – | – | strong tingling/ fizzing, mouth-watering, | – | – |
| COc1cc(C(=O)N2CCN(C/C=C/c3ccccc3)CC2)ccc1O [Compound 4, [4-[(E)-cinnamyl]piperazin-1-yl]-(4-hydroxy-3-methoxy-phenyl)methanone] | balsamic | – | – | – | – |
| COc1cc(C(=O)N2CCN(C/C=C/c3ccccc3)CC2)cc(OC)c1OC [Compound 5, [4-[(E)-cinnamyl]piperazin-1-yl]-(3,4,5-trimethoxy-phenyl)methanone] | – | – | chocolaty, dusty, after cress | – | – |
| CCOc1ccc(C(=O)N2CCN(CCc3ccccc3)CC2)cc1 [Compound 43, (4-ethoxyphenyl)-[4-(2-phenylethyl)piperazin-1-yl]methanone] | strongly bitter, metallic, tingling/fizzing (7) , and mouth-watering effect | 7 | metallic, slightly numbing, tingling/fizzing and mouth- watering effect | – | – |
| CCOc1ccc(C(=O)N2CCN(CCCc3ccccc3)CC2)cc1 [Compound 46, (4-ethoxyphenyl)-[4-(3-phenyl-propyl)piperazin-1-yl]methanone] | strong, bitter, metallic and tingling/fizzing (7), and mouth-watering effect | 7 | metallic, slightly numbing, tingling and mouth- watering effect | – | – |
| COc1ccc(C(=O)N2CCN(CCc3ccccc3)CC2)cc1OC [Compound 28, (3,4-Dimethoxy-phenyl)-[4-(2-phenyl-ethyl)piperazin-1-yl]methanone] | – | – | – | slightly tingling/ fizzing (3) slightly metallic | slightly tingling/ fizzing (3) slightly metallic |
| CCOc1ccc(C(=O)N2CCCN(CCc3ccccc3)CC2)cc1OCC [Compound 26, (3,4-Diethoxy-phenyl)-[4-(2-phenyl-ethyl)-1,4-diazepan-1-yl]methanone] | Very slightly tingling/fizzing (1-2), and mouth-watering (weak) | Very slightly tingling/fizzing (1-2), and mouth-watering (weak) | – | – | – |
| CCOc1ccc(C(=O)N2CCN(CCC3CCCCC3)CC2)cc1OCC [Compound 24, [4-(2-cyclo-hexylethyl)piperazin-1-yl]-(3,4-diethoxy-phenyl)methanone] | fruity taste (blueberries) | – | – | – | – |
| O=C(c1ccccc1)N1CCN(Cc2ccccc2)CC1 [Compound 23, (4-benzylpiperazin-1-yl)-phenyl-methanone] | Slightly floral taste, slightly metallic, not a pleasant taste, very slightly mouth-watering and tingling/fizzing | 3 | – | – | – |
| O=C(c1ccccc1)N1CCN(CCCc2ccccc2)CC1 [Compound 21, Phenyl-[4-(3-phenylpropyl)piperazin-1-yl] methanone] | slightly tingling/ fizzing and mouth-watering | 2-3 | sweet, fruity, slightly tingling/ fizzing | – | – |
| CC(C)Oc1ccc(C(=O)N2CCN(C/C=C/c3ccccc3)CC2)cc1OC(C)C [Compound 10, [4-[(E)-cinnamyl]piperazin-1-yl]-(3,4-diisopropoxy-phenyl)methanone] | – | – | astringent, bitter | – | – |
| COc1ccc(C(=O)N2CCC(CCCc3ccccc3)CC2)cc1 [Compound 37, (4-Methoxy-phenyl)-[4-(3-phenyl-propyl)-1-piperidyl]methanone] | slightly tingling/ fizzing (2), light fruity note | slightly tingling/ fizzing (2), light fruity note | – | – | – |
| COc1ccc(C(=O)N2CCN(CCCc3ccccc3)CC2)cc1OC [Compound 31, (3,4-Dimethoxy-phenyl)-[4-(3-phenyl-propyl)piperazin-1-yl]methanone] | tingling/ fizzing (5-6), and mouth-watering, fruity note, Honey flavor | tingling/ fizzing (5-6), and mouth-watering, fruity note, Honey flavor | – | – | – |
| CCOc1ccc(C(=O)N2CCN(C/C=C/c3ccccc3)CC2)cc1 [Compound 42, [4-[(E)-cinnamyl]piperazin-1-yl]-(4-ethoxy-phenyl)methanone] | slightly tingling (3-4), and mouth- watering, fruity, creamy, Vanilla flavor | slightly tingling (3-4), and mouth- watering, fruity, creamy, Vanilla flavor | – | – | – |
| CCOc1ccc(C(=O)N2CCN(CCc3ccccc3)CC2)cc1OCC [Compound 15, (3,4-Diethoxy-phenyl)-[4-(2-phenyl-ethyl)piperazin-1-yl]methanone] | – | – | Acid effect, tingling/ fizzing, mouth-watering, slightly salty | – | – |
| COc1ccc(C(=O)N2CCN(C/C=C/c3ccccc3)CC2)cc1O [Compound 9, [4-[(E)-cinnamyl]piperazin-1-yl]-(3-hydroxy-4-methoxy-phenyl)methanone] | – | – | sweet, after melon | – | – |
| O=C(c1ccccc1)N1CCN(CCCCc2ccccc2)CC1 [Compound 16, Phenyl-[4-(4-phenylbutyl)piperazin-1-yl]methanone] | metallic taste, mouth-watering and tingling/ fizzing effect | 2-3 | slightly tingling/ fizzing | – | – |
| CCCOc1ccc(C(=O)N2CCN(C/C=C/c3ccccc3)CC2)cc1OCCC [Compound 1, [4-[(E)-cinnamyl]pi-perazin-1-yl]-(3,4-dipropoxy-phenyl)methanone] | – | – | astringent mouth-watering, Spilanthes effect | – | – |
| O=C(c1ccccc1)N1CCCN(CCc2ccccc2)CC1 [Compound 22, Phenyl-[4-(2-phenyl-ethyl)-1,4-diazepan-1-yl] methanone] | very light metallic taste, remarkably mouth-watering and tingling/ fizzing | 4-5 | floral, linalool flavor | – | – |
